From US10578610B2, “Peptide regulators of mitochondrial fusion and methods of use” (priority 2016, dated 2020)
Ends that are not written are not given here.

Experiments:
[1] = system: MEFs; assay: Mitochondrial fusion by mixing of organellar contents after PEG-mediated cell fusion; assay type: cell-based, murine; conditions: 1 μM for 6 hours
Method: MEFs or neurons were grown on chamber slides and infected with recombinant adenoviri for 48-72 hours unless otherwise indicated. MEFs were stained with MitoTracker Green (200 nM, Invitrogen M7514) and Blue Hoechst (10 mg/ml, Invitrogen H3570), with or without tetramethylrhodamine ethyl ester (TMRE; 200 nM, Invitrogen T-669). Neuronal mitochondria were labeled with adenoviral-expressed mitoGFP plus TMRE, or with adeno-mitoDsRed for time-lapse studies. […] Mitochondrial fusion was measured at 2 and 6 hours after PEG-mediated cell fusion of MEFs treated 48 hours previously with adeno-mitoGFP or adeno-mitoDsRed (Chen et al., 2005, J Biol Chem, 280:26185-26192). Laser confocal fluorescence was excited with 561 nm (MitoTracker Green, GFP, FITC), 637 nm (TMRE, LysoTracker Red, mcherry-Parkin, MitoTracker Orange) or 408 nm (Blue Hoechst) laser diodes. Image analysis—Mitochondrial aspect ratio was calculated using automated edge detection and Image J software (Song et al., 2015, Cell Metab, 21:273-285). Mitochondrial depolarization was calculated as % of green mitochondria visualized on MitoTracker Green and TMRE merged images, expressed as green/(green+yellow mitochondria)×100. Parkin aggregation was calculated as % of cells with mitochondrial clumping of mcherry-Parkin (Song et al., 2015, Cell Metab, 21:273-285). […]

[2] = biological target: T1, hMfn2 (Homo sapiens, UniProt O95140); assay: Mfn2 FRET assay in live cells; assay type: cell-based; conditions: 5 μM TAT-minipeptide, data not shown
T1 construct: expressed in transfected cells; host or cells: FMK 293T cells (so in the source), Lipofectamine-transfected, pcDNA3.1
T1 sequence (O95140 1-757): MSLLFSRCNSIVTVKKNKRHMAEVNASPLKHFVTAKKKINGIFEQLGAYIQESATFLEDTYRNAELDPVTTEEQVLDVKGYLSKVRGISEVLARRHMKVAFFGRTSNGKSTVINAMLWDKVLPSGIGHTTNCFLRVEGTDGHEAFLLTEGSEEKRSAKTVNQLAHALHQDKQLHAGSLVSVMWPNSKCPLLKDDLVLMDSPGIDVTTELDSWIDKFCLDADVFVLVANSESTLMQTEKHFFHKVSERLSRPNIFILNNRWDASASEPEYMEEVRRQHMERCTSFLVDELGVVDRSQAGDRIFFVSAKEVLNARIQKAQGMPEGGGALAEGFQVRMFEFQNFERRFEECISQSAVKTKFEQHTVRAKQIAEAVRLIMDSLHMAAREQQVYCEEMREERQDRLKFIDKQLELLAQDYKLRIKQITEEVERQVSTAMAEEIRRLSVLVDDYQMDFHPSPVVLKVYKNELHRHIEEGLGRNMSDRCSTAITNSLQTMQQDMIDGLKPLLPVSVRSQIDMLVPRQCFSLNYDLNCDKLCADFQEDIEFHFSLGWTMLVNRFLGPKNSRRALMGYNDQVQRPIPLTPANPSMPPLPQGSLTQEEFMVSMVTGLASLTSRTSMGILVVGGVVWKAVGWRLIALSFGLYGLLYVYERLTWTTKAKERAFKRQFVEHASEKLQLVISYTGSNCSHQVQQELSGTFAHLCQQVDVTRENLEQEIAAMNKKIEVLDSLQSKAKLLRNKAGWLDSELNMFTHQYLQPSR
Method: mCerulean1 and mVenus were cloned onto the 5′ and 3′ ends of hMfn2 cDNA in pcDNA3.1 and confirmed by DNA sequencing. Lipofectamine-transfected biosensor-expressing FMK 293T cells were imaged on an Olympus IX81 ZDC inverted microscope under 40× magnification. mCerulean was excited at 436 nm with emission at 480 nm. mVenus was excited at 500 nm with emission at 535 nm. FRET was imaged with excitation at 436 nm and emission at 535 nm. Studies were performed after adding GTP[…]S (1 mM, Sigma-Aldrich) to suppress Mfn2 GTPase activity. Live cell FRET data were acquired as described (Spiering et al., 2013, Methods Cell Biol, 114:593-609) every 60 seconds for 15 minutes before and 90 minutes after addition of TAT-minipeptides (5 µM).

[3] = biological target: T2, human Mfn2 (Homo sapiens, UniProt O95140); assay: Mfn2 GTPase assay; assay type: biochemical; set-up: purchased OriGene; conditions: 1 M peptide 15 minutes, then 0.5 mM GTP 1 hour 37° C.; data not shown
T2 sequence (O95140 1-757): T1 sequence (O95140 1-757)
Method: Minipeptide effects on Mfn2 GTPase activity were evaluated using a modification of a previously described method (Qi X et al., 2013, J Cell Sci 126:789-802). Briefly, recombinant Mfn2 (100 ng, OriGene, Rockville, Md.) was incubated with […] control TAT peptide, TAT-367-384Gly, or TAT-398-418Gly for 15 minutes prior to addition of 0.5 mM GTP for 1 hour at 37° C. GTPase activity relative to no-peptide control was measured using a colorimetric GTPase assay kit (Novus Biologicals, Littleton, Colo.) following the manufacturer's instructions.

Row | Sequence | rate of mitochondrial content mixing (mitochondrial fusion) [1] | FRET of hMfn2 tagged with mCerulean1 and mVenus [2] | Mfn2 GTPase activity [3]
1 | QDRLKFIDKQGELLAQDYKLRGGYGRKKRRQRRR [TAT-398-418Gly] | completely suppressed mitochondrial fusion | increased | without altering Mfn2 GTPase activity
2 | QIAEAVRGIMDSLHMAARGGYGRKKRRQRRR [TAT-367-384Gly] | more than doubled | had the opposite effect | without altering Mfn2 GTPase activity
